# Measurements as given in US6403615B1, “2-Aryl-3-aroylbenzo {b} thiophenes useful for the treatment of estrogen deprivation syndrome” (Eli Lilly and Company, priority 1997, dated 2002).
# Columns and labels:
# [1] = test system: ovariectomized (OVX) rats; test: Osteoporosis (bone mineral density) in ovariectomized rat model; assay type: in vivo, Sprague Dawley rats; settings: oral in 20% hydroxypropyl β-cyclodextrin, daily for 35 days, femur x-ray image analysis, tibia quantitative computed tomography
# Description: Seventy-five day old female Sprague Dawley rats (weight range of 200g to 225 g) are obtained from Charles River Laboratories (Portage, Mich.). The animals are either bilaterally ovariectomized (OVX) or exposed to a Sham surgical procedure at Charles River Laboratories, and then shipped after one week. Upon arrival, they are housed in metal hanging cages in groups of 3 or 4 per cage and have ad libitum access to food (calcium content approximately 0.5%) and water for one week. Room temperature is maintained at 22.2°±1.7° C. with a minimum relative humidity of 40%. The photoperiod in the room is 12 hours light and 12 hours dark.
# Following the General Procedure, infra, the rats are treated daily for 35 days (6 rats per treatment group) and sacrificed by carbon dioxide asphyxiation on the 36th day. The 35 day time period is sufficient to allow maximal reduction in bone density, measured as described herein. At the time of sacrifice, the uteri are removed, dissected free of extraneous tissue, and the fluid contents are expelled before determination of wet weight in order to confirm estrogen deficiency associated with complete ovariectomy. […]
# The right femurs are excised and digitilized x-rays generated and analyzed by an image analysis program (NIH image) at the distal metaphysis. The proximal aspect of the tibiae from these animals are also scanned by quantitative computed tomography.
melting point,Structure (SMILES),loss of bone mineral density [1]
138 to 140 °C,"COc1ccc(C(=O)c2c(-c3ccc(O)cc3)sc3cc(O)ccc23)cc1 [Example 2, 2-(4-Hydroxyphenyl)-3-(4-Methoxybenzoyl)-6-Hydroxybenzo[b]thiophene]",
114 to 116 °C,"COc1ccc(-c2sc3cc(OC)ccc3c2C(=O)c2ccc(O)cc2)cc1 [Example 3, 2-(4-Methoxyphenyl)-3-(4-Hydroxybenzoyl)-6-Methoxybenzo[b]thiophene]",
,"C#C[C@]1(O)CC[C@H]2[C@@H]3CCc4cc(O)ccc4[C@H]3CC[C@@]21C [ethynyl estradiol, 17-α-ethynyl estradiol]",a reduction in the loss of bone mineral density
